The text below walks through data of ChEMBL document CHEMBL5727581, “Triazole DAGLα inhibitors” (2020).

Test [1] concerns the target T1, Diacylglycerol lipase-beta (Homo sapiens, UniProt Q8NCG7).
T1 sequence (Q8NCG7 whole entry): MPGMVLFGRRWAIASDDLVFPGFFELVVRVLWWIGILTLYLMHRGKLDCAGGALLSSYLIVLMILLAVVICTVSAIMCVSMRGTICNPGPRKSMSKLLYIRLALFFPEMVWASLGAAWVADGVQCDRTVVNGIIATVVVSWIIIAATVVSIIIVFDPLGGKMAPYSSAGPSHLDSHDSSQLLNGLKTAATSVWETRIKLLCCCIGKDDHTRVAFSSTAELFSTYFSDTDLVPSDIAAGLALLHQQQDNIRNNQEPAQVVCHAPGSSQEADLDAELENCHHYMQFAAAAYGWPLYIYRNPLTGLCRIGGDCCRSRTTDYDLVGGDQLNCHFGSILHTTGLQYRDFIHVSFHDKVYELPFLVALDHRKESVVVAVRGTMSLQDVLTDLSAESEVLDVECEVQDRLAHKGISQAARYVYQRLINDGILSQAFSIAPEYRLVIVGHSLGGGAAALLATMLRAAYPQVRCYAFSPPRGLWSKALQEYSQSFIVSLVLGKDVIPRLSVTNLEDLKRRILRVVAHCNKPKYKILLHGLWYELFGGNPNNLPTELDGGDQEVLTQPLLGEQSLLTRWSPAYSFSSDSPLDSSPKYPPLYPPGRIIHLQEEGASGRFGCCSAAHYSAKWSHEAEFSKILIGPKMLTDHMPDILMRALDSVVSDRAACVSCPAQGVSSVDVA
Description: (§1) In Vitro Inhibition of DAGL: Briefly, membrane proteome (1 mg/ml, 20 μL) was prepared from HEK293T cells (transiently transfected with hDAGLα-FLAG or hDAGLα-S472A-FLAG, hDAGLβ-FLAG or hDAGLβ-S443A-FLAG) as described in Example 16. The proteome was incubated at room temperature with vehicle (DMSO) or compound in 0.5 μL DMSO for 30 min. The membrane proteome sample was subsequently treated for 30 min with HT-01 probe (1 μM) or FP-Rh probe (1 μM). The reactions were quenched with 10 μL 3× Laemmli sample buffer (final concentrations: 60 mM Tris-Cl pH 6.8, 2% (w/v) SDS, 10% (v/v) glycerol, 5% (v/v) (3-mercaptoethanol, 0.01% (v/v) bromophenol blue). The samples were directly loaded and resolved on SDS page gel (10% acrylamide). The gels were scanned using a ChemiDoc MP system (Cy3 settings, 605/50 filter).The resolved proteins were transferred from the gels to a polyvinyldifluoride membrane for Western Blotting using a Trans-Blot® Turbo (BioRad). FLAG-tagged enzymes were stained using rabbit anti-FLAG as primary antibody, and goat-anti-rabbit HRP as secondary antibody. The blot was developed in the dark using a 10 mL luminal solution, 100 μL ECL enhancer and 3 μL H2O2. Chemiluminescence was visualized using a ChemiDoc XRS (BioRad).The percentage of DAGL activity remaining in the assayed samples was determined by measuring the integrated optical intensity of the fluorescent protein bands of the Western Blot using image lab 4.1. The relative intensity was compared to the vehicle (DMSO) treated proteins, which were set to 100%. IC50 values were determined by plotting a log(inhibitor) vs. normalized response (Variable slope) dose-response curve generated using Prism software (GraphPad). (In western blotting, separated proteins are transferred to a membrane and probed.)

In test [2] the target is T2, Diacylglycerol lipase-alpha (Homo sapiens, UniProt Q9Y4D2).
T2 sequence (Q9Y4D2 whole entry): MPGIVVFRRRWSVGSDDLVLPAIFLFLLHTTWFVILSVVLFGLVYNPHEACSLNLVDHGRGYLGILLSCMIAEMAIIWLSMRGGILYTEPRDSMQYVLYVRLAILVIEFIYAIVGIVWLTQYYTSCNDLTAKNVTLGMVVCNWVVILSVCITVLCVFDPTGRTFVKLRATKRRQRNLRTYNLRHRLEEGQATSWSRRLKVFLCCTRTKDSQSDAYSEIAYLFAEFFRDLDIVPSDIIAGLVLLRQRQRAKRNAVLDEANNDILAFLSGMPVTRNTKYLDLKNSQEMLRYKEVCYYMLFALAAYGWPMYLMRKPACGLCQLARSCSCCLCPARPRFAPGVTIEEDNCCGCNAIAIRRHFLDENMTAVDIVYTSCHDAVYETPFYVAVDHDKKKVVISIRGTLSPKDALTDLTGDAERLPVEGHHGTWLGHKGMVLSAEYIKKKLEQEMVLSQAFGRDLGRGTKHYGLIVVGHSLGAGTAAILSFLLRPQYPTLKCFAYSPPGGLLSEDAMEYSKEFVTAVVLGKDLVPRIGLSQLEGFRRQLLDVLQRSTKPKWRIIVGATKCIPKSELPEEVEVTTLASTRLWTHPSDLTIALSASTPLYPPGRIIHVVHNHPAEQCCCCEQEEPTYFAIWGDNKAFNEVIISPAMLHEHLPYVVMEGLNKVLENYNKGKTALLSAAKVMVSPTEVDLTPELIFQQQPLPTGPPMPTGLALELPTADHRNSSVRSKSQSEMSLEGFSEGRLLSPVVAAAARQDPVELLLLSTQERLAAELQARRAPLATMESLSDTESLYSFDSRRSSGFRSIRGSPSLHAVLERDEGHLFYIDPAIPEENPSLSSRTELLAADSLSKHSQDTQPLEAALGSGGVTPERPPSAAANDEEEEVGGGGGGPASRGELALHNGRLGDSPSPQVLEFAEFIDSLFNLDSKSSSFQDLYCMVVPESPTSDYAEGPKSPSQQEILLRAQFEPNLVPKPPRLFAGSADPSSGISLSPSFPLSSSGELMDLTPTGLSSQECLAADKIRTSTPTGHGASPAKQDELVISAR
The description is as §1.

pIC50: −log10 of the molar value.

One may read the pIC50 as the IC50 on a negative log10 scale, so that one unit is a factor of ten.

For the molecule `CCC(CC)CN(CCc1ccccc1)C(=O)n1ncc(-c2ccc(OC(F)(F)F)cc2)n1`, the pIC50 in test [1] is greater than 6.40. As to `CCC(CC)CN(CCc1ccccc1)C(=O)n1cc(-c2ccc(OC(F)(F)F)cc2)nn1`, the pIC50 in test [1] and in test [2] was greater than 6.40 throughout.
